Laboratory results: paper PMC7787448, “Development of an orally-administrable tumor vasculature-targeting therapeutic using annexin A1-binding D-peptides” (PLoS ONE, 2021)
Where “and” joins values, the source holds several entries; their conditions need not be identical. Identical values can stand only once. Non-standard residues stand in square brackets, D forms with d. Residues, ends and D or L forms follow the SMILES beside them. No end group written: not given here. *: point of attachment. Biotin = O=C1N[C@H]2[C@H](CS[C@H]2CCCCC(=O)*)N1

What was measured:
C6-Luc brain tumor = assay: Near infra-red fluorescence whole body imaging of IRDye-conjugated D-peptides in brain tumor-bearing mice; assay type: in vivo, mouse; details: IRDye 800CW conjugates, tail vein, nude mice with C6-Luc brain tumors, IVIS imaging 15 min to 144 h
[1] = target: T1, synthetic human MC16 peptide (ANXA1 N-terminus) (Homo sapiens, UniProt P04083); assay: Plate binding assay of biotinylated dTIT7 to MC16-coated wells (streptavidin-peroxidase, A450); details: N-terminal biotinylated dTIT7 added to MC16-coated plastic wells, peroxidase-streptavidin colour reaction, read-out: Kd of dTIT7 bound to WT MC16
T1 construct: chemically synthesized ANXA1 N-terminus (1–15 residues plus a cysteine at 16); purchased Bio-Synthesis (Lewisville, TX); host or cells: chemical synthesis
Protocol: To assess dTIT7 binding, wells of Sulfhydryl-BIND Surface Maleimide plates (Corning) were coated 20 hours with wild type (WT) and mutant L-MC16 in water at 4°C. After washing with PBS containing 0.02% Tween 20 (PBST), wells were blocked 1 hour with 10% superblock (Thermo) in PBST at room temperature. Biotinylated dTIT7 (10 μg dissolved in 10% superblock in PBST (1 mL) prepared as above was added to each well at 100 μl/well and incubated 30 min at room temperature for. After three PBST washes, 100 μl streptavidin-peroxidase (0.2 μg/ml) in 10% superblock in PBST containing 2% bovine serum albumin was added to each well and incubated 30 min. After three PBST washes, 100 μL of the peroxidase substrate one-step-TMB (Thermo) was added and incubated until the color developed. The reaction was stopped by adding 100 μl 2N sulfuric acid, and absorbance at 450 nm monitored using an ELISA plate reader. […]
Fig 2 Binding of dTIT7 to an ANXA1 N-terminal domain peptide or to full-length ANXA1 protein. […] In A and B, biotinylated dTIT7 peptide (1 μg/mL) was added to each MC16-coated plastic well and binding of peptide to MC16 was detected by a peroxidase-conjugated streptavidin and peroxidase color reaction. […]

[2] = target: T2, recombinant full-length ANXA1 (Homo sapiens, UniProt P04083); parameters: method as in PMID 32921792; details: IF7 with ANXA1; cited from earlier work
T2 construct: Recombinant, full-length ANXA1 was expressed using the baculovirus expression system; honeybee melittin signal peptide (N, cleaved yes); His8-tag (N, cleaved yes); made in house; host or cells: Sf9 insect cells (baculovirus), secreted
T2 sequence (P04083 1-346): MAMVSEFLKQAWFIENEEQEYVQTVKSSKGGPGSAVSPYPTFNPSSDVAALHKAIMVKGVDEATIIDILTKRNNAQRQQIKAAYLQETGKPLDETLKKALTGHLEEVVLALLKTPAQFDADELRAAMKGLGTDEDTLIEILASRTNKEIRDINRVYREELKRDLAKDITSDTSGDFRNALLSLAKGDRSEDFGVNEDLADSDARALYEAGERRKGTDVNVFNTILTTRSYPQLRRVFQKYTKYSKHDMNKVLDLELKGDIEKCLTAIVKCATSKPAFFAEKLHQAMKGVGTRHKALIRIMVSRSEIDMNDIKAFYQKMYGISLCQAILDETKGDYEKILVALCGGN

Annexin A1 = target: T3, Annexin A1 (Homo sapiens, UniProt P04083); assay: QCM
T3 chain: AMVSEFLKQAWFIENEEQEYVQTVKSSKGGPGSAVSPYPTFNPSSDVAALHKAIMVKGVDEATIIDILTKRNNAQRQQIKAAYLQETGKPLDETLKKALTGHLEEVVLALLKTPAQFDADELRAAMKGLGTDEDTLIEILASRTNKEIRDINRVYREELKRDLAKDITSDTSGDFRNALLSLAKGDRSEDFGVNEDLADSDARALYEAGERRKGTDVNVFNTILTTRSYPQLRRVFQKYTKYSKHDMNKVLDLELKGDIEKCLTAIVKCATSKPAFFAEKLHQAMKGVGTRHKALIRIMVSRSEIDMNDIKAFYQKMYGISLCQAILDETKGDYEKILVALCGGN

[3] = target: T4, ANXA1 N-terminal peptide L-MC16 (Homo sapiens); assay: plate binding assay (ELISA)
T4 chain: MAMVSEFLKQAWFIEC

Molecule: CSCC[C@@H](N)C(=O)N1CCC[C@@H]1C(=O)N[C@@H](C(=O)N[C@H](CC(C)C)C(=O)N[C@@H](C(=O)N[C@H](Cc1ccccc1)C(=O)N[C@H](CCCNC(=N)N)C(=O)O)[C@H](C)O)[C@H](C)O [dMPT7] (H-[dM][dP][dT][dL][dT][dF][dR]-OH; N-terminus and C-terminus assumed)
- Localization of near infra-red fluorescence after intravenous injection (C6-Luc brain tumor): signals in brain, kidney and other organs

Molecule: CC(C)C[C@@H](N)C(=O)N[C@H](CC(C)C)C(=O)N[C@H](CO)C(=O)N[C@H](Cc1c[nH]c2ccccc12)C(=O)N1CCC[C@@H]1C(=O)N[C@H](CO)C(=O)N[C@H](C)C(=O)O [dLLS7] (H-[dL][dL][dS][dW][dP][dS][dA]-OH; N-terminus and C-terminus assumed)
- Localization of near infra-red fluorescence after intravenous injection (C6-Luc brain tumor): signals in brain, kidney and other organs

Molecule: CC[C@@H](C)[C@@H](NC(=O)[C@H](N)[C@H](C)O)C(=O)N[C@@H](C(=O)N[C@H](Cc1c[nH]c2ccccc12)C(=O)N1CCC[C@@H]1C(=O)N[C@@H](C(=O)N[C@H](CCSC)C(=O)O)[C@H](C)O)[C@H](C)O [dTIT7]
- Kd [1]: 8.5 nM and 8.56 nM

Molecule: IFLLWQR (linear all-L peptide; any N-terminal Cys/linker or conjugate left out) [IF7]
- Kd [2]: 63.8 nM

Molecule: CC(C)C[C@@H](NC(=O)[C@@H](CC(C)C)NC(=O)[C@@H](CO)NC(=O)[C@H](NC(=O)[C@H]1CCCN1C(=O)[C@H](N)CO)[C@H](C)O)C(=O)N[C@H](Cc1ccccc1)C(=O)O [dSPT7] (H-[dS][dP][dT][dS][dL][dL][dF]-OH; N-terminus and C-terminus assumed)
- Localization of near infra-red fluorescence after intravenous injection (C6-Luc brain tumor): signals in brain, kidney and other organs

Molecule: [dL][dR][dF][dP][dT][dV][dL] [dLRF7]
- Kd (Annexin A1): 31.2 nM

Molecule: [dT][dI][dT][dW][dP][dT][dM]
- Kd (Annexin A1): 46.6 nM

Molecule: Biotin-[dT][dI][dT][dW][dP][dT][dM]
- Kd [3]: 8.5 nM
